pIC50: −log10 of the molar value.
Test system: MDA-MB-436 breast cancer cells
Assay: Cell proliferation assay, MDA-MB-436
Format: cell-based
Details: Homo sapiens, MDA-MB-436, 168 h; proliferation, 7 days; read-out: MDA-MB-436 Cell IC50
Method: Experimental Materials: MDA-MB-436 or UWB1.289 cell lines were purchased from Cobioer Biosciences Co. Ltd. (Nanjing, China). The STR identification results were a complete match, and mycoplasma testing was negative. MDA-MB-436 cells were cultured in DMEM complete medium containing 10% fetal bovine serum, 1% penicillin-streptomycin, 1% insulin, and 16 μg/mL glutathione; UWB1.289 cells were cultured in RMPI1640 complete medium containing 10% fetal bovine serum and 1% penicillin-streptomycin.
1. MDA-MB-436 or UWB1.289 cells were cultured in the aforementioned medium (culture conditions: 37° C., 5.0% CO2 in air) until they reached the logarithmic growth phase. The cells were then digested with trypsin containing 0.25% EDTA, centrifuged at 1000 rpm, and the supernatant was discarded. Cell culture medium was added, and the cell suspension was adjusted to 2×10^4/mL after counting. 135 μL of the cell suspension per well was taken and cultured in a 96-well cell culture plate for 16 hours (culture conditions: 37° C., 5.0% CO2 in air).
2. The test compounds, stored at a concentration of 10 mM, were diluted 2.5 times with DMSO and then serially diluted in a 1:3 gradient (9 gradients). The gradient-diluted samples were further diluted 40 times with serum-free medium, and 15 μL of each was added to the 96-well cell culture plate. The positive control group received serum-free medium containing the same concentration of DMSO, and the negative control group received medium without cells. The cells were then cultured for an additional 7 days.
3. After the culture period, the cell culture plate was placed at room temperature for 30 minutes. Then, 100 μL of CellCounting-Lite 2.0 reagent (Vazyme, #DD1101) was added to each well, mixed thoroughly, and incubated in the dark at room temperature for 10 minutes. The luminescence signal was read using a Synergy HTX multi-mode reader.
(§1) 4. Data analysis was performed using GraphPad Prism 8.0 software. The inhibition rate (%) was calculated as 100*(average luminescence signal of the positive control group−luminescence signal of the compound)/(average luminescence signal of the positive control group−average luminescence signal of the negative control group). The IC50 value was obtained by plotting the logarithm of the compound concentration against the percentage inhibition rate.

Row | Compound | pIC50
1 | CNC(=O)c1ccc(N2CCN(Cc3cnc4c(C)c(C(F)(F)F)c(=O)[nH]c4c3)CC2CC#N)cn1 (stereo not shown) [Compound 73, 5-(2-(cyanomethyl)-4-((8-methyl-6-oxo-7-(trifluoromethyl)-5,6-dihydro-1,5-naphthyridin-3-yl)methyl)piperazin-1-yl)-N-methylpicolinamide] | 7.84
2 | CNC(=O)c1ccc(C2=CCN(Cc3cnc4c(C)c(C(F)(F)F)c(=O)[nH]c4c3)CC2C)cn1 (stereo not shown) [Compound 80, N,3′-dimethyl-1′-((8-methyl-6-oxo-7-(trifluoromethyl)-5,6-dihydro-1,5-naphthyridin-3-yl)methyl)-1′,2′,3′,6′-tetrahydro-[3,4′-bipyridine]-6-carboxamide] | 7.86
3 | CNC(=O)c1ccc(C2=C(C)CN(Cc3cnc4c(C)c(C(F)(F)F)c(=O)[nH]c4c3)CC2)cn1 [Compound 81, N,5′-dimethyl-1′-((8-methyl-6-oxo-7-(trifluoromethyl)-5,6-dihydro-1,5-naphthyridin-3-yl)methyl)-1′,2′,3′,6′-tetrahydro-[3,4′-bipyridine]-6-carboxamide] | 7.88
4 | CNC(=O)c1ccc(C2=CCN(Cc3cnc4c(C)c(C(F)(F)F)c(=O)[nH]c4c3)CC2)nc1 [Compound 82, N-methyl-1′-((8-methyl-6-oxo-7-(trifluoromethyl)-5,6-dihydro-1,5-naphthyridin-3-yl)methyl)-1′,2′,3′,6′-tetrahydro-[2,4′-bipyridine]-5-carboxamide] | 8.23
5 | CNC(=O)c1ccc(N2CCN(Cc3cnc4c(C)c(C(F)(F)F)c(=O)[nH]c4c3)C[C@H]2C#N)cn1 [Compound 86, (S)-5-(2-cyano-4-((8-methyl-6-oxo-7-(trifluoromethyl)-5,6-dihydro-1,5-naphthyridin-3-yl)methyl)piperazin-1-yl)-N-methylpicolinamide] | 7.83
6 | CNC(=O)c1ccc(N2CCN(Cc3ccc4c(F)c(C)c(=O)[nH]c4c3)CC2)cn1 [Compound 94, 5-(4-((4-fluoro-3-methyl-2-oxo-1,2-dihydroquinolin-7-yl)methyl)piperazin-1-yl)-N-methylpicolinamide] | 8.24
7 | CNC(=O)c1ccc(N2CCN(Cc3cnc4c(C)c(C(F)F)c(=O)[nH]c4c3)[C@H](C)C2)cn1 [Compound 104, (R)-5-(4-((7-(difluoromethyl)-8-methyl-6-oxo-5,6-dihydro-1,5-naphthyridin-3-yl)methyl)-3-methylpiperazin-1-yl)-N-methylpicolinamide] | 8.19
8 | CNC(=O)c1ccc(N2CCN(Cc3cnc4c(C)c(C(F)F)c(=O)[nH]c4c3)C[C@H]2C)cn1 [Compound 105, (R)-5-(4-((7-(difluoromethyl)-8-methyl-6-oxo-5,6-dihydro-1,5-naphthyridin-3-yl)methyl)-2-methylpiperazin-1-yl)-N-methylpicolinamide] | 8.31
9 | CNC(=O)c1ccc(C2=CCN(Cc3cnc4c(C)c(C(F)F)c(=O)[nH]c4c3)CC2)cn1 [Compound 106, 1′-((7-(difluoromethyl)-8-methyl-6-oxo-5,6-dihydro-1,5-naphthyridin-3-yl)methyl)-N-methyl-1′,2′,3′,6′-tetrahydro-[3,4′-bipyridine]-6-carboxamide] | 9.11

Further lines, results first:

Row | pIC50 | Compound
10 | 8.67 | [2H]C([2H])([2H])NC(=O)c1ccc(N2CCN(Cc3cnc4c(C)c(C(F)(F)F)c(=O)[nH]c4c3)CC2)cn1 [Compound 95, N-(methyl-ds)-5-(4-((8-methyl-6-oxo-7-(trifluoromethyl)-5,6-dihydro-1,5-naphthyridin-3-yl)methyl)piperazin-1-yl)picolinamide]
11 | 8.03 | Cc1c(C(F)(F)F)c(=O)[nH]c2cc(CN3CCN(c4ccc(C(=O)NCCO)nc4)CC3)cnc12 [Compound 96, N-(2-hydroxyethyl)-5-(4-((8-methyl-6-oxo-7-(trifluoromethyl)-5,6-dihydro-1,5-naphthyridin-3-yl)methyl)piperazin-1-yl)picolinamide]
12 | 8.67 | Cc1c(C(F)(F)F)c(=O)[nH]c2cc(CN3CCN(c4ccc(C(=O)NCC(F)(F)F)nc4)CC3)cnc12 [Compound 97, 5-(4-((8-methyl-6-oxo-7-(trifluoromethyl)-5,6-dihydro-1,5-naphthyridin-3-yl)methyl)piperazin-1-yl)-N-(2,2,2-trifluoroethyl)picolinamide]
13 | 8.91 | CCNC(=O)c1ccc(N2CCN(Cc3cnc4c(C)c(C(F)(F)F)c(=O)[nH]c4c3)CC2)cn1 [Compound 98, N-ethyl-5-(4-((8-methyl-6-oxo-7-(trifluoromethyl)-5,6-dihydro-1,5-naphthyridin-3-yl)methyl)piperazin-1-yl)picolinamide]
14 | 8.05 | CNC(=O)c1ccc(N2CCN(Cc3cnc4c(C)c(C(F)(F)F)c(=O)[nH]c4c3F)CC2)cn1 [Compound 101, 5-(4-((4-fluoro-8-methyl-6-oxo-7-(trifluoromethyl)-5,6-dihydro-1,5-naphthyridin-3-yl)methyl)piperazin-1-yl)-N-methylpicolinamide]
15 | 8.42 | CNC(=O)c1ccc(N2CCN(Cc3cnc4c(F)c(C)c(=O)[nH]c4c3)CC2)cn1 [Compound 103, 5-(4-((8-fluoro-7-methyl-6-oxo-5,6-dihydro-1,5-naphthyridin-3-yl)methyl)piperazin-1-yl)-N-methylpicolinamide]

Molecular target: PARP1 (Homo sapiens (Human), UniProt P09874)
Sequence (P09874 whole entry): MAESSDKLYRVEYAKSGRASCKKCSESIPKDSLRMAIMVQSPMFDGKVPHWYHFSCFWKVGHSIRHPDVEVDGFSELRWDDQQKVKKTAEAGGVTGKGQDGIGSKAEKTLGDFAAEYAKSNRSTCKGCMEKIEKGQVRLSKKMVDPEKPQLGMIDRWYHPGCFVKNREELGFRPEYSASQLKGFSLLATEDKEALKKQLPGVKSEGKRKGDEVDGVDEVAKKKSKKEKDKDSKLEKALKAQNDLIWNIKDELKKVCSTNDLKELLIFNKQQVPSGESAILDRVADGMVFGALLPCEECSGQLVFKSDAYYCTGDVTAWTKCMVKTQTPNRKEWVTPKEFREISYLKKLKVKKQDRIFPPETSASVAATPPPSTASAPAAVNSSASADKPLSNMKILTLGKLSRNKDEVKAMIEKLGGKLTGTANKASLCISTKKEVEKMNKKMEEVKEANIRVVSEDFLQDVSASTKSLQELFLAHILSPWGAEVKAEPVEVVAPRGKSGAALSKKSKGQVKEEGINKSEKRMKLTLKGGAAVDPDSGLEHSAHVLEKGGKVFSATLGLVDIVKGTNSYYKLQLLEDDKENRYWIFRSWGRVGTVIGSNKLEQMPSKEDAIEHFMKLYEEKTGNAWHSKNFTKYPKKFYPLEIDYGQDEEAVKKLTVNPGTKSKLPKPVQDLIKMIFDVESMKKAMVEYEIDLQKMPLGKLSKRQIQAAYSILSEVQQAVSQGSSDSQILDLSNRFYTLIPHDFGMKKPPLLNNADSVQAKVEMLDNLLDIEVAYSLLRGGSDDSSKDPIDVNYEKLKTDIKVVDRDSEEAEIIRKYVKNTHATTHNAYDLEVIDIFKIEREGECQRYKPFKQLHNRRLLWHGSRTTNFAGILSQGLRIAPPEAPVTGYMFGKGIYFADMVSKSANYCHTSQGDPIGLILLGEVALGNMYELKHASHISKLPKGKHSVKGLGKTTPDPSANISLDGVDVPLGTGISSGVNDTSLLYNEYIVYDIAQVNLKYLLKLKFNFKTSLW
Assay: PARP enzyme activity assay (PARP1 chemiluminescent assay kit)
Format: biochemical
Details: enzyme inhibitory activity, read-out: PARP-1 IC50
From the text: Experimental Materials: The PARP1 assay kit was purchased from BPS Bioscience, USA, specifically the 384-well chemiluminescent assay kit (Catalog No.: #80551).
Experimental Principle: PARP can catalyze the transfer of ADP-ribose residues from NAD+ to target substrates, thereby modifying proteins through ribosylation. This experiment measures PARP1 enzyme activity by detecting the poly(ADP-ribosylation) of histones by PARP1.
Preparation of Reagents and Test Compounds: The 10× assay buffer included in the kit was diluted to 1× with distilled water. The test compound (stock concentration of 10 mM) was diluted to 10 μM with a DMSO solution and then serially diluted in a 1:3 ratio. The serially diluted compounds were further diluted 10-fold with the 1× assay buffer.
Experimental Method: The procedure was carried out according to the kit's instructions:
1. The 5× histone mixture was diluted to 1× with PBS, and 25 μL was added to each well of a 384-well plate, incubating overnight at 4° C.
2. After incubation, 100 μL of PBST (0.05% Tween 20) was added to each well for washing, repeated three times. Then, 100 μL of blocking solution was added to each well and incubated at room temperature for 90 minutes.
3. After incubation, the wells were washed three times with PBST, and then 1.25 μL of 10× assay buffer, 1.25 μL of 10×PARP assay mixture, 2.5 μL of activation DNA (5×), and 7.5 μL of distilled water were added to each well.
4. […] The positive control group and the negative control group were added with 1× assay buffer containing the same concentration of DMSO.
5. Next, 10 μL of 2.5 ng/μL PARP1 enzyme was added to the test compound and positive control groups, while 10 μL of 1× assay buffer was added to the negative control group, and the mixture was incubated at room temperature for 60 minutes.
6. Streptavidin-HRP was diluted 1:50 with the blocking solution. After incubation, the plate was washed three times with PBST, and 25 μL of the diluted streptavidin-HRP solution was added to each well, incubating at room temperature for 30 minutes.
7. After incubation, the plate was washed three times with PBST, and 50 μL of the mixed substrate A and substrate B in equal volumes was added. The luminescence signal was immediately read on a Synergy HTX multi-mode reader.
as §1, with “8.” for “4.”, “%=100*(average” for “(%) was calculated as 100*(average”

Row | Compound | pIC50
16 | CNC(=O)c1ccc(N2CCN(Cc3cnc4c(C)c(C(F)(F)F)c(=O)[nH]c4c3)C(CC#N)C2)cn1 (stereo not shown) [Compound 3, 5-(3-(cyanomethyl)-4-((8-methyl-6-oxo-7-(trifluoromethyl)-5,6-dihydro-1,5-naphthyridin-3-yl)methyl)piperazin-1-yl)-N-methylpicolinamide] | 8.82
17 | CNC(=O)c1ccc(N2CC3CCC(C2)N3Cc2cnc3c(C)c(C(F)(F)F)c(=O)[nH]c3c2)cn1 [Compound 12, N-methyl-5-(8-((8-methyl-6-oxo-7-(trifluoromethyl)-5,6-dihydro-1,5-naphthyridin-3-yl)methyl)-3,8-diazabicyclo[3.2.1]octan-3-yl)picolinamide] | 8.65

Continued, values first:

Row | pIC50 | Compound
18 | 7.57 | CNC(=O)c1ccc(N2CCN(Cc3cnc4c(C)c(C(F)(F)F)c(=O)[nH]c4c3)C(CCO)C2)cn1 (stereo not shown) [Compound 5, 5-(3-(2-hydroxyethyl)-4-((8-methyl-6-oxo-7-(trifluoromethyl)-5,6-dihydro-1,5-naphthyridin-3-yl)methyl)piperazin-1-yl)-N-methylpicolinamide]
19 | 7.46 | CNC(=O)c1ccc(N2CCN(Cc3cnc4c(C)c(C(F)(F)F)c(=O)[nH]c4c3)C(CO)C2)cn1 (stereo not shown) [Compound 6, 5-(3-(hydroxymethyl)-4-((8-methyl-6-oxo-7-(trifluoromethyl)-5,6-dihydro-1,5-naphthyridin-3-yl)methyl)piperazin-1-yl)-N-methylpicolinamide]

Test system: not listed separately
Assay: Evaluation of pharmacokinetics in mice
Details: male, ICR (CD1), mouse, plasma, po, 10 mg/kg
Method: Test Objective: The pharmacokinetics of the example compounds of the present application were tested in mice. By measuring the drug concentration in mouse plasma, the pharmacokinetic behavior of the compounds of the present invention was studied to evaluate their pharmacokinetic characteristics.
Test Animals: 6-8 Week Old Male ICR (CD1) Mice
Oral Gavage Drug Preparation: An appropriate amount of the test compound was first weighed and dissolved in DMSO (Macklin cas: 67-68-5) to prepare a 20 mg/mL solution. Then, 75 μL of this solution was added to 150 μL of Solutol (Sigma cas: 70142-34-6), followed by 1.275 mL of 20% Captisol (Selleck cas: 182410-00-0), resulting in a final drug concentration of 1 mg/mL.
Intravenous Injection Drug Preparation: An appropriate amount of the test compound was first weighed and dissolved in DMSO (Macklin cas: 67-68-5) to prepare a 30 mg/mL solution. Then, 15 μL of this solution was added to 150 μL of Solutol (Sigma cas: 70142-34-6), followed by 1.335 mL of 20% Captisol (Selleck cas: 182410-00-0), resulting in a final drug concentration of 0.3 mg/mL.
Procedures: The mice were fasted overnight with free access to water before the experiment. Food was restored two hours after dosing. Blood samples were collected at different time points after intravenous injection or oral gavage of the test compound in mice, and the compound concentration in plasma was measured. Approximately 50 μL of blood was collected from each animal using a capillary sampling tube via the orbital venous plexus, with heparin sodium as an anticoagulant. Blood samples were placed on ice, centrifuged at 3500 r/min for 10 minutes to separate the plasma, and 20 μL of the collected plasma was added to 200 μL of acetonitrile (Merck cas: 75-05-8) containing 200 nM dexamethasone (Selleck cas: 50-02-2) as an internal standard. The mixture was centrifuged at 8000 r/min for 20 minutes. After centrifugation, 150 μL of the supernatant was transferred to a new centrifuge tube, and 150 μL of 0.1% formic acid (Fisher cas: 207868) was added. The mixture was mixed well, and 5 μL of the sample was subjected to quantitative analysis by liquid chromatography-mass spectrometry (Q-TOF LC/MS).
The test compound was serially diluted with DMSO to cover the compound concentrations expected in plasma samples to be tested, with a blank sample (containing only DMSO) included.
2 μL of each diluted sample at various concentrations was added to 18 μL of normal ICR mouse plasma, mixed, and then added to 200 μL of acetonitrile (Merck cas: 75-05-8) containing 200 nM dexamethasone (Selleck cas: 50-02-2) as an internal standard. The mixture was centrifuged for 20 minutes (8000 r/min). 150 μL of the supernatant was transferred to a new centrifuge tube, and 150 μL of 0.1% formic acid (Fisher cas: 207868) was added. The mixture was mixed well, and 5 μL of the sample was subjected to quantitative analysis by liquid chromatography-mass spectrometry (Q-TOF LC/MS).
The final standard curve was plotted using the concentration of the test compound after dilution on the abscissa and the ratio of the signal of the compound to the internal standard (dexamethasone) on the ordinate. The standard curve was generated using linear regression with GraphPad Prism 8 software (R2>0.9900).
Data Analysis: calculation of pharmacokinetic parameters: the concentration of the test compound in plasma at different time points after intravenous injection or oral gavage in ICR mice was determined based on the above standard curve, and pharmacokinetic parameters (T1/2, Cmax, AUC, etc.) were calculated using the Phoenix WinNonlin 8.1 non-compartmental analysis model.

Row | AUC(0-inf) [µg·h/mL] | Cmax [ng/mL] | half-life [h] | Compound
20 | 2050 | 37500 | 38 | [2H]C([2H])([2H])NC(=O)c1ccc(N2CCN(Cc3cnc4c(C)c(C(F)(F)F)c(=O)[nH]c4c3)CC2)cn1 [Compound 95, N-(methyl-ds)-5-(4-((8-methyl-6-oxo-7-(trifluoromethyl)-5,6-dihydro-1,5-naphthyridin-3-yl)methyl)piperazin-1-yl)picolinamide]

— patent US20250051324A1, “PARP INHIBITOR, PHARMACEUTICAL COMPOSITION COMPRISING SAME, AND USE THEREOF” (KEYTHERA (SUZHOU) BIO-PHARMACEUTICALS CO., LIMITED, priority 2021, published 2025)
